According to US12616203B2, “Use of 3-isoxazolidinones compounds as selective herbicides” (FMC Corporation, priority 2014, dated 2026):
Like-named read-outs stand apart in the source and are kept apart here.

Columns and labels:
[1] = system: Pennsylvania smartweed (PS); test: PRE greenhouse, 2,4-DC + sulfentrazone (Tables 3-3B), % control; format: in vivo, Polygonum pennsylvanicum; conditions: 28 DAT, g ai/ha by row: r7-35 2,4-DC 31.2/62.5/125/250/375 (3 rows each) + sulfentrazone 105/210/315 (cycling), r37-41 2,4-DC 31.2/62.5/125/250/375, r42-44 sulfentrazone 105/210/315
Procedure: (§1) Test compositions containing 2,4-DC Example 1B and sulfentrazone (Spartan® 4F, 39.6% active ingredient, FMC Corp.) and mixtures of 2-(2,4-dichlorophenyl)methyl-4,4-dimethyl-3-isoxazolidinone and sulfentrazone, were diluted with water to provide the appropriate test rate concentration.
(§2) The test weeds were Pennsylvania smartweed (PS) (Polygonum pennsylvanicum), Palmer amaranth (PA) (Amaranthus palmeri), velvetleaf (VL) (Abutilon theophrasti), green foxtail (GF) (Setaria viridis), morningglory (MG) (Ipomoea spp.), yellow nutsedge (YN) (Cyperus esculentus), purple nutsedge (PN) (Cyperus rotundus), and benghal dayflower (BD) (Commelina benghalensis). Crops included in the evaluation were corn, wheat, and cowpea. […]
(§3) The application rates are those shown in Table 3, 3A, an d 3B below for the individual herbicidal solutions and the herbicide compositions of the present invention. […] The control of weeds was evaluated in each experimental test at 28 days after treatment (DAT), 14 DAT for crops. […] Percent weed control was determined by a method similar to the 0 to 100 rating system disclosed in “Research Methods in Weed Science,” 2nd ed., B. Truelove, Ed.; Southern Weed Science Society; Auburn University, Auburn, Ala., 1977.

Palmer amaranth (PA) = test: PRE greenhouse, 2,4-DC + sulfentrazone, % control; format: in vivo, Amaranthus palmeri; conditions: 28 DAT, g ai/ha by row: r7-35 2,4-DC 31.2/62.5/125/250/375 (3 rows each) + sulfentrazone 105/210/315 (cycling), r37-41 2,4-DC 31.2/62.5/125/250/375, r42-44 sulfentrazone 105/210/315
Procedure: as §1, §2, §3

velvetleaf (VL) = test: PRE greenhouse, 2,4-DC + sulfentrazone, % control; format: in vivo, Abutilon theophrasti; conditions: 28 DAT, g ai/ha by row: r7-35 2,4-DC 31.2/62.5/125/250/375 (3 rows each) + sulfentrazone 105/210/315 (cycling), r37-41 2,4-DC 31.2/62.5/125/250/375, r42-44 sulfentrazone 105/210/315
Procedure: as §1, §2, §3

green foxtail (GF) = test: PRE greenhouse, 2,4-DC + sulfentrazone, % control; format: in vivo, Setaria viridis; conditions: 28 DAT, g ai/ha by row: r7-35 2,4-DC 31.2/62.5/125/250/375 (3 rows each) + sulfentrazone 105/210/315 (cycling)
Procedure: as §1, §2, §3

morningglory (MG) = test: PRE greenhouse, 2,4-DC + sulfentrazone, % control; format: in vivo, Ipomoea spp.; conditions: 28 DAT, g ai/ha by row: r7-35 2,4-DC 31.2/62.5/125/250/375 (3 rows each) + sulfentrazone 105/210/315 (cycling), r37-41 2,4-DC 31.2/62.5/125/250/375, r42-44 sulfentrazone 105/210/315
Procedure: as §1, §2, §3

yellow nutsedge (YN) = test: PRE greenhouse, 2,4-DC + sulfentrazone, % control; format: in vivo, Cyperus esculentus; conditions: 28 DAT, g ai/ha by row: r8-16 2,4-DC 50/100/200 (3 rows each) + sulfentrazone 105/210/315 (cycling)
Procedure: as §1
(§4) The test weeds were Pennsylvania smartweed (PS) (Polygonum pennsylvanicum), Palmer amaranth (PA) (Amaranthus palmeri), velvetleaf (VL) (Abutilon theophrasti), green foxtail (GF) (Setaria viridis), morningglory (MG) (Ipomoea spp.), yellow nutsedge (YN) (Cyperus esculentus), purple nutsedge (PN) (Cyperus rotundus), and benghal dayflower (BD) (Commelina benghalensis). Crops included in the evaluation were corn, wheat, and cowpea.
(§5) For pre-emergence testing, four disposable fiber flats (6″ by 10″) for each rate of application of each herbicide solution were filled with top soil, to which seeds of each species were planted in furrows made by a template pressed on the top of the soil. The furrows with crop/weed seeds were covered with soil and were watered well before application of the test compounds. Flats designated for treatment were placed in a spray chamber having a static platform and a movable sprayer and height of the spray nozzle was 10.5 inches above the soil level. Once the sprayer was calibrated using water for spray volume of 30 gallons per acre, flats were sprayed with sprayer at a speed to receive a coverage equivalent of 30 gallons per acre.
The application rates are those shown in Table 3, 3A, an d 3B below for the individual herbicidal solutions and the herbicide compositions of the present invention. The pre-emergence flats were immediately placed in the greenhouse and watered lightly after treatment for herbicide activation. Thereafter they were regularly watered and feterilized for the duration of the test. The control of weeds was evaluated in each experimental test at 28 days after treatment (DAT), 14 DAT for crops. The results, shown as an average of the replications, were compared with results observed in untreated control flats in the same tests. Percent weed control was determined by a method similar to the 0 to 100 rating system disclosed in “Research Methods in Weed Science,” 2nd ed., B. Truelove, Ed.; Southern Weed Science Society; Auburn University, Auburn, Ala., 1977.

purple nutsedge (PN) = test: PRE greenhouse, 2,4-DC + sulfentrazone, % control; format: in vivo, Cyperus rotundus; conditions: 28 DAT, g ai/ha by row: r8-16 2,4-DC 50/100/200 (3 rows each) + sulfentrazone 105/210/315 (cycling)
Procedure: as §1, §2, §3

benghal dayflower (BD) = test: PRE greenhouse, 2,4-DC + sulfentrazone, % control; format: in vivo, Commelina benghalensis; conditions: 28 DAT, g ai/ha by row: r8-16 2,4-DC 50/100/200 (3 rows each) + sulfentrazone 105/210/315 (cycling)
Procedure: as §1, §4, §5
The application rates are those shown in Table 3, 3A, an d 3B below for the individual herbicidal solutions and the herbicide compositions of the present invention. The pre-emergence flats were immediately placed in the greenhouse and watered lightly after treatment for herbicide activation. […] The control of weeds was evaluated in each experimental test at 28 days after treatment (DAT), 14 DAT for crops. […] Percent weed control was determined by a method similar to the 0 to 100 rating system disclosed in “Research Methods in Weed Science,” 2nd ed., B. Truelove, Ed.; Southern Weed Science Society; Auburn University, Auburn, Ala., 1977.

Corn = conditions: 21 DAT, PRE
Text: (Ipomoea spp.); Italian ryegrass (Lolium perenne L. ssp. multiflorum, LOLMU). Crops tested included corn, wheat, cotton, cowpea, and bush bean.
Palmer amaranth, common ragweed, Pennsylvania smartweed, velvetleaf, wild oat, green foxtail, morningglory, and Italian ryegrass were screened. […] Thereafter flats were watered and fertilized routinely.

weeds = test: Ex10 PRE greenhouse; format: in vivo; conditions: 28 DAT, weed and rate in the words
Text: Treatments 1-12 of 2,4-DC and aclonifen tank-mix combinations follow same rates listed above. […] Sulfentrazone (Spartan 4F® 39.6%) at 280 g ai/ha, pendimethalin (Prowl 3.3®EC, 37.4%) at 784 g ai/ha, or S-metolachlor (Dual II Magnum® 82.4%) at 1084 g ai/ha were applied as commercial standards. Treatments were replicated 3 times and flats were watered after planting but before the treatment and lightly watered after treatment application. Thereafter flats were watered and fertilized routinely. […] Shepherd's-purse was rated at 21 and 28 DAT only, due to delayed emergence.

weeds; Sugarcane (CTC20) = test: Ex23 PRE greenhouse; conditions: 28 DAT, weed and rate in the words
Procedure: (Ipomoea spp). The tested crop in this study was Sugarcane (CTC20).
Sugarcane was direct seeded into 6″ plastic pots using 3-4″ sugarcane setts, oriented bud up, with bud leaf shield removed. 2,4 DC and sulfentrazone were applied alone or combined as tank-mix at each rate mentioned below. […] Treatments were replicated 3 times. […] Thereafter flats were watered and fertilized routinely. […] Visual percent sugarcane injury was recorded at 21 and 28 DAT, using a scale of 0 (no injury, observed as bleaching, stunting or necrosis) to 100 (complete plant death).

sedges = test: Ex26 PRE greenhouse; format: in vivo; conditions: 28 DAT, weed and rate in the words
Text: Treatments were applied at the time of planting to yellow nutsedge, purple nutsedge, and benghal dayflower. […] Flats were watered and fertilized routinely after treatment application.

[2] = system: weeds; corn, wheat, cotton, cowpea, and bush bean; test: Ex42 PRE greenhouse; format: in vivo; conditions: crop and rate in the words
Text: Thereafter flats were watered and fertilized routinely.

[3] = r17-19 2,4-DC 50/100/200, r20-22 sulfentrazone 105/210/315, 105 g ai/ha
[4] = r17-19 2,4-DC 50/100/200, r20-22 sulfentrazone 105/210/315, 210 g ai/ha
[5] = r17-19 2,4-DC 50/100/200, r20-22 sulfentrazone 105/210/315, 315 g ai/ha

SMILES: Cc1nn(-c2cc(NS(C)(=O)=O)c(Cl)cc2Cl)c(=O)n1C(F)F [sulfentrazone]
- % Control PS [1]: 100%
- % Control PA (Palmer amaranth (PA)): 100%
- % Control VL (velvetleaf (VL)): 100%
- % Control GF (green foxtail (GF); r37-41 2,4-DC 31.2/62.5/125/250/375, r42-44 sulfentrazone 105/210/315, 105 g ai/ha): 84%
- % Control GF (green foxtail (GF); r37-41 2,4-DC 31.2/62.5/125/250/375, r42-44 sulfentrazone 105/210/315, 210 g ai/ha): 100%
- % Control MG (morningglory (MG)): 100%
- % Control YN (yellow nutsedge (YN); [3]): 85%
- % Control YN (yellow nutsedge (YN); [4]): 95%
- % Control YN (yellow nutsedge (YN); [5]): 100%
- % Control PN (purple nutsedge (PN); [3]): 77%
- % Control PN (purple nutsedge (PN); [5]): 83%
- % Control BD (benghal dayflower (BD); [3]): 72%
- % Control BD (benghal dayflower (BD); [4]): 88%
- % Control BD (benghal dayflower (BD); [5]): 90%
- crop injury, Sulfentrazone alone (Corn; sulfentrazone 105 g ai/ha): 3%
- crop injury, Sulfentrazone alone (Corn; sulfentrazone 210 g ai/ha): 10%
- crop injury, Sulfentrazone alone (Corn; sulfentrazone 315 g ai/ha): 38%
- weed control in words (weeds): at 280 g provided control of all weeds except quackgrass, annual bluegrass, and blackgrass
- weed control in words (weeds; Sugarcane (CTC20)): alone controlled hairy beggarticks at 315 g; all other weeds were controlled with all rates
- weed control in words (sedges): alone controlled yellow nutsedge at all rates, benghal dayflower at 210 or 315 g and did not control purple nutsedge at any rate
- crop safety in words [2]: alone was safe on corn and bush bean only at 105 g, wheat and cowpea at 105 or 210 g 14 DAT
